Source: US20130116227A1, “BIARYL AMIDE DERIVATIVE OR PHARMACEUTICALLY ACCEPTABLE SALT THEREOF” (DAINIPPON SUMITOMO PHARMA CO., LTD., priority 2010, published 2013)

Biological target: T1, aldosterone receptor (Rattus norvegicus, UniProt P22199)
T1 construct: centrifuged at 105,000 g for 30 minutes, and then a supernatant was collected as a renal soluble fraction; from tissue; host or cells: rat kidney (adrenalectomized rat), 105,000 g supernatant (cytosol)
T1 sequence (P22199 1-981): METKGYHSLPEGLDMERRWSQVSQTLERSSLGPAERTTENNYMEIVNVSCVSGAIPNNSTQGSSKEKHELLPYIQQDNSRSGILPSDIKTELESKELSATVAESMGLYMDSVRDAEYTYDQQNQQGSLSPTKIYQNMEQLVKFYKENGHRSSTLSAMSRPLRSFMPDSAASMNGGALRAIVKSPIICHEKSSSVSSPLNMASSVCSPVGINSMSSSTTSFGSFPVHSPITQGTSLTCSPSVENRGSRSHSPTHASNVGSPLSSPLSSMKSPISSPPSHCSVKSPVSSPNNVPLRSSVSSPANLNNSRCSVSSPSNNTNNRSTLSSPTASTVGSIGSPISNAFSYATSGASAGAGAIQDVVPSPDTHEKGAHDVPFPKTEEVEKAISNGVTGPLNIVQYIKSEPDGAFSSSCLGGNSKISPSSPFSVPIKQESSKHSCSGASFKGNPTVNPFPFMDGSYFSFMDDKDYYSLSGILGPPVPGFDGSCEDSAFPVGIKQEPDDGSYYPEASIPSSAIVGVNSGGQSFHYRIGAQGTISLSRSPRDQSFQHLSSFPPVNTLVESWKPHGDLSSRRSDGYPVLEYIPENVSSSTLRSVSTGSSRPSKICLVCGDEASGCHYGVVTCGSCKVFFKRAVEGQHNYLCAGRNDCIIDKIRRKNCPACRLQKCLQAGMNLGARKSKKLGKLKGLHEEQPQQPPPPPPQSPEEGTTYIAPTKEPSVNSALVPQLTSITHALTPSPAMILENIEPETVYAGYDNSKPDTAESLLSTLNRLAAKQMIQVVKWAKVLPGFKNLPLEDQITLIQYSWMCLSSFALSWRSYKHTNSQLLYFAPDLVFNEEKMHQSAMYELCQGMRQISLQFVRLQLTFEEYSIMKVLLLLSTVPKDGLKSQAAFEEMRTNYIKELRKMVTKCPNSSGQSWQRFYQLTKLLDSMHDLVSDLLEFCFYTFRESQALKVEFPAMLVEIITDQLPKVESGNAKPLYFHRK
Assay: Binding inhibition test for aldosterone receptor ([3H]aldosterone, rat renal soluble fraction)
Conditions: rat renal soluble fraction; for IC50: [3H]aldosterone 2 nM, in the presence of 2 μM RU-486, 4° C. about 18 hours, read-out: MR IC50
Experimental: Binding Inhibition Test for Aldosterone Receptor
A rat was layed open in flank regions (on both sides) to remove both adrenal glands. After stitching up the incision, the rat was returnd to a breeding cage again. After removing the kidney from the rat reared for about 3 to 5 days, the kidney was homogenized in 0.1 M Tris-HCl, 0.25M sucrose, 0.1M Na2MoO4 and 2 mM DTT buffer solution (pH7.4). The resultant was centrifuged at 105,000 g for 30 minutes, and then a supernatant was collected as a renal soluble fraction.
The rat renal soluble fraction (0.5 to 1.5 mg), a labeled ligand [^3H] aldosterone (2 nM) and a test article were reacted in the presence of 2 μM RU-486 (glucocorticoid receptor antagonist) in 100 μL of total amounts at 4° C. for about 18 hours. Afterwards, to the reaction solution was added 50 μL of 5% dextran-coated activated charcoal, and the mixture was immingled, and then centrifuged at 3,000 g for 5 minutes. Then, a supernatant (100 μL) was collected and mixed with a liquid scintillator ACS-II (Amersham) (3.5 mL), and then analyzed its radioactivity by a liquid scintillation counter (manufactured by Packard, Tri Carb 2700TR). A non-specific binding was obtained by addition of 2 μM aldosterone to a reaction solution. […]
Binding inhibition rate (%)=100−{(B−N)/(B0−N)}×100
B: labeled ligand binding amounts in the presence of a test article and a labeled ligand
B0: labeled ligand binding amounts in the absence of a test article
N: labeled ligand binding amounts in the presence of excess aldosterone (2 μM)
Test example 1 was carried out for compounds obtained in the Examples.

Compound	IC50 [nM]	binding affinities for aldosterone receptor ([3H] aldosterone 2 nM, in the presence of 2 μM RU-486)
CS(=O)(=O)c1ccc(NC(=O)c2ccc(-c3ccccc3C(F)(F)F)c(CO)c2)cc1 [Example 65]	250	
COCc1ccccc1-c1ccc(C(=O)Nc2ccc(S(N)(=O)=O)c(OC)c2)cc1 [Example 28]	3000	
COc1cc(NC(=O)c2ccc(-c3ccccc3OC(F)(F)F)c(CNC3=NCCO3)c2)ccc1S(N)(=O)=O [Example 309]	230	
CS(=O)(=O)c1ccc(NC(=O)c2ccc(-c3ccccc3OC(F)(F)F)c(CN3CCOCC3)c2)cc1 [Example 162]	660	
COc1cc(NC(=O)c2ccc(-c3cccc4cccnc34)c(C)c2)ccc1S(N)(=O)=O [Example 537]	5400	
COc1cc(NC(=O)c2ccc(-c3ccc(Cl)cc3C(F)(F)F)c(CNCC(F)F)c2)ccc1S(N)(=O)=O [Example 474]	< 10000	
COc1cc(NC(=O)c2ccc(-c3ccccc3C(F)(F)F)c(CNCC(F)F)c2)ccc1S(N)(=O)=O [Example 268]	990	
COc1cc(C(=O)Nc2ccc(-c3ccccc3C(F)(F)F)c(Cn3cccn3)c2)ccc1S(N)(=O)=O [Example 405]	210	
CS(=O)(=O)c1ccc(NC(=O)c2ccc(-c3ccccc3OC(F)(F)F)c(CN3CCC(F)(F)CC3)c2)cc1 [Example 174]	940	
COc1cc(NC(=O)c2ccc(-c3ccccc3C(F)(F)F)cc2)ccc1S(=O)(=O)N(C)C [Example 50]	700	
COc1cc(NC(=O)c2ccc(-c3ccccc3C(F)(F)F)c(OCCO)c2)ccc1S(N)(=O)=O [Example 121]	520	
COc1cc(NC(=O)c2ccc(-c3ccccc3C(F)(F)F)c(CNCC3CC3)c2)ccc1S(N)(=O)=O [Example 92]	410	
CS(=O)(=O)c1ccc(NC(=O)c2ccc(-c3ccccc3OC(F)(F)F)c(CNc3ncccn3)c2)cc1 [Example 526]	2200	
CC(C)CCNCc1cc(C(=O)Nc2ccc(S(C)(=O)=O)cc2)ccc1-c1ccccc1OC(F)(F)F [Example 226]	< 10000	
COc1cc(NC(=O)c2ccc(-c3ccccc3C3CCCCC3)cc2)ccc1S(N)(=O)=O [Example 35]	350	
COCCNCc1cc(NC(=O)c2ccc(S(N)(=O)=O)c(OC)c2)ccc1-c1ccccc1OC(F)(F)F [Example 364]	540	

Compound	IC50 [nM]	binding affinities for aldosterone receptor ([3H] aldosterone 2 nM, in the presence of 2 μM RU-486)
COc1cc(NC(=O)c2ccc(-c3cccnc3-c3cccnc3)c(C)c2)ccc1S(N)(=O)=O [Example 531]	< 10000	
COc1cc(NC(=O)c2ccc(-c3ccccc3C(F)(F)F)c(COCC3CCCN(C)C3)c2)ccc1S(N)(=O)=O (stereo not shown) [Example 99]	2000	
COc1cc(NC(=O)c2ccc(-c3ccccc3OC(F)(F)F)c(CN3CC(F)(F)C3)c2)ccc1S(N)(=O)=O [Example 287]	250	
COc1cc(C(=O)Nc2ccc(-c3ccccc3CN3CCOCC3)c(C)c2)ccc1S(N)(=O)=O [Example 337]	1100	
Cn1nccc1CNCc1cc(C(=O)Nc2ccc(S(C)(=O)=O)cc2)ccc1-c1ccccc1OC(F)(F)F [Example 520]	2900	
COc1cc(NC(=O)c2ccc(-c3ccccc3C(=O)OC(C)(C)C)cc2)ccc1S(N)(=O)=O [Example 31]	250	
COc1cc(NC(=O)c2ccc(-c3ccccc3OC(F)(F)F)c(NCc3nccn3C)c2)ccc1S(N)(=O)=O [Example 577]	< 10000	
CCCOc1ccc(-c2ccc(NC(=O)c3ccc(S(N)(=O)=O)c(OC)c3)cc2CO)c(C(F)(F)F)c1 [Example 313]	2200	
COc1cc(NC(=O)c2ccc(-c3ccccc3C(C)C)cc2)ccc1S(N)(=O)=O [Example 36]	1400	
CS(=O)(=O)c1ccc(NC(=O)c2ccc(-c3ccccc3OC(F)(F)F)c(CN3CCC3)c2)cc1 [Example 508]	< 10000	
CCOC(=O)Nc1cc(C(=O)Nc2ccc(S(N)(=O)=O)c(OC)c2)ccc1-c1ccccc1CC [Example 581]	< 10000	
COc1cc(NC(=O)c2ccc(-c3ccccc3OC(F)(F)F)c(CN3CCCCCCC3)c2)ccc1S(N)(=O)=O [Example 299]	140	
COc1cc(NC(=O)c2ccc(-c3ccccc3CC(F)(F)F)c(CNCC(F)F)c2)ccc1S(N)(=O)=O [Example 438]	< 10000	
NS(=O)(=O)c1cccc(NC(=O)c2ccc(-c3ccccc3)c(CN3CCCCC3)c2)c1 [compound 2, reference compound]		very few binding affinities
CCN(CC)Cc1cc(C(=O)Nc2ccc(S(N)(=O)=O)c(OC)c2)ccc1-c1ccccc1OC(F)(F)F [Example 295]	100	

Second part, the compound after the results:

IC50 [nM]	binding affinities for aldosterone receptor ([3H] aldosterone 2 nM, in the presence of 2 μM RU-486)	Compound
< 10000		COc1cc(NC(=O)c2ccc(-c3cccc(Cl)c3Cl)c(CNCC(F)F)c2)ccc1S(N)(=O)=O [Example 454]
220		COc1cc(C(=O)Nc2ccc(-c3ccccc3C(F)(F)F)c(CNCc3ccco3)c2)ccc1S(N)(=O)=O [Example 329]
< 10000		COc1cc(C(=O)Nc2ccc(-c3ccccc3Cl)c(CNCC(F)F)c2)ccc1S(N)(=O)=O [Example 488]
620		COc1cc(C(=O)Nc2ccc(-c3ccccc3C(F)(F)F)c(Cc3nccn3C)c2)ccc1S(N)(=O)=O [Example 550]
3000		COc1cc(NC(=O)c2ccc(-c3ccccc3-c3nc(C)no3)cc2)ccc1S(N)(=O)=O [Example 46]
190		CCCN(Cc1cc(C(=O)Nc2ccc(S(C)(=O)=O)cc2)ccc1-c1ccccc1OC(F)(F)F)CC1CC1 [Example 500]
< 10000		COc1cc(NC(=O)c2ccc(-c3ccccc3OC3CC3)c(CO)c2)ccc1S(N)(=O)=O [Example 590]
< 10000		COc1cc(NC(=O)c2ccc(-c3ccc(F)cc3C3CC3)c(CNCC(F)F)c2)ccc1S(N)(=O)=O [Example 470]
290		CCN(CC)c1cc(C(=O)Nc2ccc(S(N)(=O)=O)c(OC)c2)ccc1-c1ccccc1C(F)(F)F [Example 132]
3300		COC(=O)c1ccccc1-c1ccc(C(=O)Nc2ccc(S(N)(=O)=O)c(OC)c2)cc1 [Example 19]
< 10000		CCC(C)(C)NCc1cc(C(=O)Nc2ccc(S(C)(=O)=O)cc2)ccc1-c1ccccc1OC(F)(F)F [Example 206]
< 10000		CCOCc1cc(C(=O)Nc2ccc(S(N)(=O)=O)c(OC)c2)ccc1-c1cccnc1OCC [Example 547]
< 10000		CCN(Cc1ccccc1)Cc1cc(C(=O)Nc2ccc(S(C)(=O)=O)cc2)ccc1-c1ccccc1OC(F)(F)F [Example 189]
560		COc1cc(C(=O)Nc2ccc(-c3ccccc3C(F)(F)F)c(CNCC(F)F)c2)ccc1S(N)(=O)=O [Example 389]
460		CCC(CC)NCc1cc(NC(=O)c2ccc(S(N)(=O)=O)c(OC)c2)ccc1-c1ccccc1OC(F)(F)F [Example 365]
130		COc1cc(NC(=O)c2ccc(-c3ccccc3C(F)(F)F)c(COCCCO)c2)ccc1S(N)(=O)=O [Example 103]
1700		COc1cc(NC(=O)c2ccc(-c3ccc(F)cc3C(F)(F)F)cc2)ccc1S(N)(=O)=O [Example 17]
910		CS(=O)(=O)c1ccc(NC(=O)c2ccc(-c3ccccc3OC(F)(F)F)c(CN[C@H]3CCCc4ccccc43)c2)cc1 [Example 211]
400		CC(=O)OCc1cc(C(=O)Nc2ccc(S(C)(=O)=O)cc2)ccc1-c1ccccc1C(F)(F)F [Example 64]
190		COc1cc(C(=O)Nc2ccc(-c3ccccc3C(F)(F)F)c(CCl)c2)ccc1S(N)(=O)=O [Example 324]
1900		COc1cc(NC(=O)c2ccc(-c3ccccc3C(F)(F)F)c(OCc3ccccc3)c2)ccc1S(N)(=O)=O [Example 62]
